According to ChEMBL document CHEMBL5291721, “A preclinical secondary pharmacology resource illuminates target-adverse drug reaction associations of marketed drugs” (Nat Commun, 2023):

Assays:
[1] = target: Beta-1 adrenergic receptor (Homo sapiens, UniProt P08588); type: functional, cell-based
[2] = target: T1, D(1A) dopamine receptor (Homo sapiens, UniProt P21728); type: functional, cell-based
[3] = target: 5-hydroxytryptamine receptor 2A (Homo sapiens, UniProt P28223)
[4] = target: Hydroxycarboxylic acid receptor 2 (Homo sapiens, UniProt Q8TDS4)
Hydroxycarboxylic acid receptor 2, sequence (Q8TDS4 whole entry): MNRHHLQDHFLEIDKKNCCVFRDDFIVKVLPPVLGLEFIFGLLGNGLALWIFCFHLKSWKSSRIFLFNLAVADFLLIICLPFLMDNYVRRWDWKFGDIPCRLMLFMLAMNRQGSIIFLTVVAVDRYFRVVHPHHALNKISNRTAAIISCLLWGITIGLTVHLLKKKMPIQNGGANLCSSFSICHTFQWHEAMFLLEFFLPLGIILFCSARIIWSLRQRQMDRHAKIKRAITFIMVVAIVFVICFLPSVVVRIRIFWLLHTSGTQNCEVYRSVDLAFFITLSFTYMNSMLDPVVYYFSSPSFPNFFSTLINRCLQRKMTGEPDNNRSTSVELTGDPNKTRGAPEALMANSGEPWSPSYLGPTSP

[5] = target: T2, Prostaglandin G/H synthase 1 (Rattus norvegicus, UniProt Q63921); type: functional
T2 sequence (Q63921 whole entry): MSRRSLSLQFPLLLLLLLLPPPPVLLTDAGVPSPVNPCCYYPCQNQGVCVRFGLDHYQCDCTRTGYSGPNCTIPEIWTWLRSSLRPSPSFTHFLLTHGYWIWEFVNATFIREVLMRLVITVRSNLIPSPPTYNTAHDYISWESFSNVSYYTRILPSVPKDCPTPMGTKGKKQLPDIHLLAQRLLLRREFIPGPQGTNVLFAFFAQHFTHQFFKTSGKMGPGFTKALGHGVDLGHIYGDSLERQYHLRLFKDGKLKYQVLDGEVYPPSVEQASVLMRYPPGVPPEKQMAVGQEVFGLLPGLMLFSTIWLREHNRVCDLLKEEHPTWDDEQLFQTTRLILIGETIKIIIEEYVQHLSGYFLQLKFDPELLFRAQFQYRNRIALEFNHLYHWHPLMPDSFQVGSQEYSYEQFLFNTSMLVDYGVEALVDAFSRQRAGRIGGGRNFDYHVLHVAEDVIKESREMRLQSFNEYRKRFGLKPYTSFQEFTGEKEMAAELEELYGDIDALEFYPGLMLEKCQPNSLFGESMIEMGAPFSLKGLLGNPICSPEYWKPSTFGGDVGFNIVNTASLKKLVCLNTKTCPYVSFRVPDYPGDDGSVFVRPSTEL

[6] = target: Gamma-aminobutyric acid type B receptor subunit 1 (Homo sapiens, UniProt Q9UBS5)
Gamma-aminobutyric acid type B receptor subunit 1, sequence (Q9UBS5 whole entry): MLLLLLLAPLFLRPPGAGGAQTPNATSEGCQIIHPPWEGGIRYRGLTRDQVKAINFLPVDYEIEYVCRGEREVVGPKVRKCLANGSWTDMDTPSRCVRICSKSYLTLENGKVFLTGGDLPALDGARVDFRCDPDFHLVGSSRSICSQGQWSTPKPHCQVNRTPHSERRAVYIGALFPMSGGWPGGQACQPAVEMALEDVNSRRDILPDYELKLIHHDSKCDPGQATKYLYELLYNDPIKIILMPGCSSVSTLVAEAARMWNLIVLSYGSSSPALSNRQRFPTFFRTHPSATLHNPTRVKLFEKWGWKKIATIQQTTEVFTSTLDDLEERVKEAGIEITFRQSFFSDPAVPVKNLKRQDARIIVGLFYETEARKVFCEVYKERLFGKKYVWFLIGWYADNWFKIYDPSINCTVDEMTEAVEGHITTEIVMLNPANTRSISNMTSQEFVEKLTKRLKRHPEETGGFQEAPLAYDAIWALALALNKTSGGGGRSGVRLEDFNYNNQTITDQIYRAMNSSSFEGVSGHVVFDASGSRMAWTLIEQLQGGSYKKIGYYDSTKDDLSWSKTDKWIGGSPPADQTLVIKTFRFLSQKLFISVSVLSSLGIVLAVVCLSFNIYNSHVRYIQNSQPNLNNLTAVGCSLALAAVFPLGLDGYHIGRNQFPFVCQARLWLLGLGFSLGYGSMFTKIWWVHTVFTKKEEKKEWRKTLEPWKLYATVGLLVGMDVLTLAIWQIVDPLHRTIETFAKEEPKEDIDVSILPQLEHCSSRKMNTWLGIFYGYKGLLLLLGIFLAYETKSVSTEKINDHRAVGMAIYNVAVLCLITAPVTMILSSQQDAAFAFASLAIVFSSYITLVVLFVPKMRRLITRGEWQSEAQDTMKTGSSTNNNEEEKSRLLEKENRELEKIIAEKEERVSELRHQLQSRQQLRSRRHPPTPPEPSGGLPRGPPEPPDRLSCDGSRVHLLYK

[7] = target: 5-hydroxytryptamine receptor 5A (Homo sapiens, UniProt P47898)
5-hydroxytryptamine receptor 5A, sequence (P47898 whole entry): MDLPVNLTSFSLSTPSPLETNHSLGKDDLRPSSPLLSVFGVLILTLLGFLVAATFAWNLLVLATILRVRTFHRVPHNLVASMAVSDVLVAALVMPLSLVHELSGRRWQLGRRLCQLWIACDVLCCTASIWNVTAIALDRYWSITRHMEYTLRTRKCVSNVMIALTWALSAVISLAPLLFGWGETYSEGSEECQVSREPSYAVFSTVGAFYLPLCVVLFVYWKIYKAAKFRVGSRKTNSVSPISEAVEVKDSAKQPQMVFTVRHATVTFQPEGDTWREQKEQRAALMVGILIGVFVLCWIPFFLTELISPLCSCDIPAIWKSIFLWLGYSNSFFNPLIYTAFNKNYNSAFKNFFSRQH

[8] = target: 5-hydroxytryptamine receptor 6 (Homo sapiens, UniProt P50406)
5-hydroxytryptamine receptor 6, sequence (P50406 whole entry): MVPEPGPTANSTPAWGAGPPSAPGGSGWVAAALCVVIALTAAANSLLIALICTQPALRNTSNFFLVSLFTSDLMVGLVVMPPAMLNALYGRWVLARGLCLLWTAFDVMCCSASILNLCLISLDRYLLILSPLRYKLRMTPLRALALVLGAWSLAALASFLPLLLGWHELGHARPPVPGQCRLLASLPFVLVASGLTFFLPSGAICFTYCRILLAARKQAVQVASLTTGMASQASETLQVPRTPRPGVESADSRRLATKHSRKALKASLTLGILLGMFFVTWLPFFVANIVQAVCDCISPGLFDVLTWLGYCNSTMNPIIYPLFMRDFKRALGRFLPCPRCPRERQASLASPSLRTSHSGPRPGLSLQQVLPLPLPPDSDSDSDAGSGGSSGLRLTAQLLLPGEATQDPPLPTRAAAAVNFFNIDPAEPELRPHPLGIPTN

[9] = target: Cannabinoid receptor 1 (Homo sapiens, UniProt P21554); type: functional
Cannabinoid receptor 1, sequence (P21554 whole entry): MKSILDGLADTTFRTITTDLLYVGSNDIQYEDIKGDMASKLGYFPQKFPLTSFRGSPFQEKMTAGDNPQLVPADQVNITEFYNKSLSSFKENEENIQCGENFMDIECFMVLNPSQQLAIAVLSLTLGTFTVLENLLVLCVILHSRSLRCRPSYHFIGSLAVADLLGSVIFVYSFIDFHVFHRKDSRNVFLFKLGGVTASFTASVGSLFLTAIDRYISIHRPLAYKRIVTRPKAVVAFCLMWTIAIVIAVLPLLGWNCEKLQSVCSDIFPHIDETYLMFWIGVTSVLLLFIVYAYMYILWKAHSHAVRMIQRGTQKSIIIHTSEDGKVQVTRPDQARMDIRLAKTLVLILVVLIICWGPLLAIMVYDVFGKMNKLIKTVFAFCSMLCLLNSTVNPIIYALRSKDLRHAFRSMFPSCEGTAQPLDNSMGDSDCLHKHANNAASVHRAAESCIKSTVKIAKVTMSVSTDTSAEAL

[10] = target: T3, Androgen receptor (Rattus norvegicus, UniProt P15207)
T3 sequence (P15207 whole entry): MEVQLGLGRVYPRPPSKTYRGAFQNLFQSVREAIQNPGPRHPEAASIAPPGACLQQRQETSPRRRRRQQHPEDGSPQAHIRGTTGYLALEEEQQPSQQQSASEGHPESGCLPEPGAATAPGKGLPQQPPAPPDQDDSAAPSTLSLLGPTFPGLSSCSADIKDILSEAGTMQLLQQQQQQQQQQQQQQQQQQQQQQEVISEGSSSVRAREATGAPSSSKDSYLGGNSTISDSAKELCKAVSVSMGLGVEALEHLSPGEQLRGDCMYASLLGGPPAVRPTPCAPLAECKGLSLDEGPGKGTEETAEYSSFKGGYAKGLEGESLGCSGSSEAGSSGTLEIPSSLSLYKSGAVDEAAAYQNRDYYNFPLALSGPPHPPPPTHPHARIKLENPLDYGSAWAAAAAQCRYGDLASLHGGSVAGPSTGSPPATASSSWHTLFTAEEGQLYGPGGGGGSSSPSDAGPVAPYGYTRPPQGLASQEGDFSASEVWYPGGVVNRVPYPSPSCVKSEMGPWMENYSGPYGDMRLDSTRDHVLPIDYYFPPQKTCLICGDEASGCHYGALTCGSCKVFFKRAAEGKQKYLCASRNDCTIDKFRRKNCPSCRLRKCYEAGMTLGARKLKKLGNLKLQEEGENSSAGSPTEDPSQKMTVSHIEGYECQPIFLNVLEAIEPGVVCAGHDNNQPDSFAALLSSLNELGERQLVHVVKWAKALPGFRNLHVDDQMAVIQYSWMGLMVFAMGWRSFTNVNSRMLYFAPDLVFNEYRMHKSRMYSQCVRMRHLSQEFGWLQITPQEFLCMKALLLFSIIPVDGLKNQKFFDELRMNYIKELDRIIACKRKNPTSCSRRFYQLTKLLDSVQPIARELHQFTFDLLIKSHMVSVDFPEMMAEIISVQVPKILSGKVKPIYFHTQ

[11] = target: T4, Muscarinic acetylcholine receptor M4 (Homo sapiens, UniProt P08173)
T4 sequence (P08173 whole entry): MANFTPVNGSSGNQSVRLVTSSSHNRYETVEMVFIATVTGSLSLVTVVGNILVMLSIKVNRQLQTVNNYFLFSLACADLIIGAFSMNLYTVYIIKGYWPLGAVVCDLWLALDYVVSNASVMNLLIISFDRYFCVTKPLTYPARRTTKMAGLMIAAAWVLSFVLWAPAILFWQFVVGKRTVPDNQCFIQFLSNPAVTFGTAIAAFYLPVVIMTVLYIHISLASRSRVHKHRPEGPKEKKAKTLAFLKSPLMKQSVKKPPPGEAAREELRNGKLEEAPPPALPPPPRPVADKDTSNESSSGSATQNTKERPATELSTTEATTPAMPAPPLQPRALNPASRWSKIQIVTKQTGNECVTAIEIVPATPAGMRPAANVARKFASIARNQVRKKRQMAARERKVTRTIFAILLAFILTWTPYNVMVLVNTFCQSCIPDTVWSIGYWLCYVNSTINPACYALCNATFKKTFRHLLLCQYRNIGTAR

[12] = target: T5, Thromboxane A2 receptor (Homo sapiens, UniProt P21731); type: functional
T5 sequence (P21731 whole entry): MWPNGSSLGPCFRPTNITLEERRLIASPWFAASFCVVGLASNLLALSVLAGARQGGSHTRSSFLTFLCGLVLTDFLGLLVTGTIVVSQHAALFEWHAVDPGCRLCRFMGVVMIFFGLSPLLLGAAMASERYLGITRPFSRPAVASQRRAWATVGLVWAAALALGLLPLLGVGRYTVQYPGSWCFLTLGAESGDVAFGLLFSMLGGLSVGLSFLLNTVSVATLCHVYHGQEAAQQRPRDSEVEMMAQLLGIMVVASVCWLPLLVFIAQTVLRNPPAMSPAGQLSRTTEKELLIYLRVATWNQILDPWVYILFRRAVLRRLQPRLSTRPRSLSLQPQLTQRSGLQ

[13] = target: Vascular endothelial growth factor receptor 2 (Homo sapiens, UniProt P35968); type: functional
[14] = target: T1, D(1A) dopamine receptor
Further: assay procedure not described here.

5-hydroxytryptamine receptor 2A, sequence (P28223 whole entry): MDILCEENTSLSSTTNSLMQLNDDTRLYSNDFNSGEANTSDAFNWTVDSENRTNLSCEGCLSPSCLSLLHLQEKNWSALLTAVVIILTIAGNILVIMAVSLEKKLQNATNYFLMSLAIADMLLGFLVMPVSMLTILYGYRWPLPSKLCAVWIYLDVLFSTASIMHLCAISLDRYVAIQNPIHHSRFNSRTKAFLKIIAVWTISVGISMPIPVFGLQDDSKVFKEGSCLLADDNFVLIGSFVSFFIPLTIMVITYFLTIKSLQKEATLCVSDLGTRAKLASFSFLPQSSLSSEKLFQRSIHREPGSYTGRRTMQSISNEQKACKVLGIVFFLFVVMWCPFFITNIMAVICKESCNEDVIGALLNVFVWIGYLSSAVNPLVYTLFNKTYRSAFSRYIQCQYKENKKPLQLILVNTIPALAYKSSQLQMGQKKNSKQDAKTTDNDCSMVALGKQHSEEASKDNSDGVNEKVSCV
T1 sequence (P21728 whole entry): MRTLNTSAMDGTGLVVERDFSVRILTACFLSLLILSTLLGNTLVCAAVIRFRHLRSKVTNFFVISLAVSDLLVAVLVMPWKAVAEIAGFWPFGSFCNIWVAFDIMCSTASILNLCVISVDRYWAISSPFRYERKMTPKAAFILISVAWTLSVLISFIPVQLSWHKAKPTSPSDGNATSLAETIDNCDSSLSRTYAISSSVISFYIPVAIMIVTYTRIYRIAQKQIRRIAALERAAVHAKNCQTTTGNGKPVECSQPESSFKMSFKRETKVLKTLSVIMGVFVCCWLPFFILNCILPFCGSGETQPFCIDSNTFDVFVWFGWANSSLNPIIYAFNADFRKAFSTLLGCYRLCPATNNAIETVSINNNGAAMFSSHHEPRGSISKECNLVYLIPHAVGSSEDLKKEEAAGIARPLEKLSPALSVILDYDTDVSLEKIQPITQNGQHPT
Beta-1 adrenergic receptor, sequence (P08588 whole entry): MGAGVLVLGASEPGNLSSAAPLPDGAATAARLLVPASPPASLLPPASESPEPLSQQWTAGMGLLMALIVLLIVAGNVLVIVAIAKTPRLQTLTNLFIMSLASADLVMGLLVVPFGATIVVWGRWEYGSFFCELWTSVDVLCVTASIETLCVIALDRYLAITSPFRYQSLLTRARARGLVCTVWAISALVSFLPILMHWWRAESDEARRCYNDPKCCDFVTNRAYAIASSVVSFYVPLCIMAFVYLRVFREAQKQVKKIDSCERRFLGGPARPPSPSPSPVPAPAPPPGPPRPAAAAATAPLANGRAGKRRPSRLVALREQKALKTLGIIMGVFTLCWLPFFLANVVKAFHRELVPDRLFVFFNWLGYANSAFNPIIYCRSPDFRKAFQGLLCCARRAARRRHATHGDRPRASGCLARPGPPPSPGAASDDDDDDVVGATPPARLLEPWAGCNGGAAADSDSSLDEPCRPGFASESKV

## CN(C)CC/C=C1\c2ccccc2CSc2ccccc21 [DOTHIEPIN]
[1]
  AC50: > 30 µM

## C=CCN1C[C@H](C(=O)N(CCCN(C)C)C(=O)NCC)C[C@@H]2c3cccc4[nH]cc(c34)C[C@H]21 [CABERGOLINE]
[2]
  AC50: > 30 µM
[3]
  AC50: 0.0077 µM

## O=[N+]([O-])O[C@@H]1CO[C@H]2[C@@H]1OC[C@@H]2O [ISOSORBIDE MONONITRATE]
[4]
  AC50: > 10 µM
[3]
  AC50: > 10 µM

## COc1ccccc1N1CCN(CC(O)COc2cccc3ccccc23)CC1 (configuration not stated) [NAFTOPIDIL]
[1]
  AC50: > 30 µM

## COc1ccc(C(=O)Nc2ccccc2CCC2CCCCN2C)cc1 (configuration not stated) [ENCAINIDE]
[4]
  AC50: > 10 µM
[3]
  AC50: 0.103 µM

## CCCCCNC(=N)N/N=C/c1c[nH]c2ccc(OC)cc12 [TEGASEROD]
[5]
  AC50: > 30 µM
[6]
  AC50: > 10 µM
[3]
  AC50: 0.174 µM
[7]
  AC50: 0.19 µM
[8]
  AC50: 0.198 µM

## O=[N+]([O-])c1cn2c(n1)OC[C@@H](OCc1ccc(OC(F)(F)F)cc1)C2 [PRETOMANID]
[3]
  AC50: > 10 µM
[9]
  AC50: > 10 µM
[8]
  AC50: > 10 µM

## CCOc1ccc(Cc2cc([C@@H]3O[C@H](CO)[C@@H](O)[C@H](O)[C@H]3O)ccc2Cl)cc1 [DAPAGLIFLOZIN]
[10]
  AC50: > 30 µM

## CCOc1ccccc1OCC1CNCCO1 (configuration not stated) [VILOXAZINE]
[10]
  AC50: > 30 µM
[11]
  AC50: > 10 µM
[6]
  AC50: > 10 µM
[12]
  AC50: > 30 µM
[9]
  AC50: > 10 µM
[13]
  AC50: > 30 µM
[7]
  AC50: > 10 µM
[8]
  AC50: > 10 µM

## CC(=O)c1ccc2c(c1)N(CCCN(C)C)c1ccccc1S2 [ACEPROMAZINE]
[2]
  AC50: 1.4 µM
[14]
  AC50: 0.066 µM
